Structures can show the parent of a compound that is named as a salt.
| SMILES | melting point |
| --- | --- |
| CN1CCN(c2cccc3c2CN(C(=O)Cc2ccccc2Cl)CC3)CC1 (as salt: salt) [Example 7, 2-(2-Chloro-phenyl)-1-[8-(4-methyl-piperazin-1-yl)-3,4-dihydro-1H-isoquinolin-2-yl]-ethanone] | 54 °C |
| CN1CCN(c2cccc3c2CN(C(=O)CCc2ccc(Cl)cc2)CC3)CC1 (as salt: salt) [Example 2, 3-(4-Chloro-phenyl)-1-[8-(4-methyl-piperazin-1-yl)-3,4-dihydro-1H-isoquinolin-2-yl]-propan-1-one] | 84 °C |
| CN1CCN(c2cccc3c2CN(C(=O)Cc2cccnc2)CC3)CC1 (as salt: salt) [Example 9, 1-[8-(4-Methyl-piperazin-1-yl)-3,4-dihydro-1H-isoquinolin-2-yl]-2-pyridin-3-yl-ethanone] | 56 °C |
| CN1CCN(c2cccc3c2CN(C(=O)c2ccc(N4CCOCC4)cc2)CC3)CC1 [Example 11, [8-(4-Methyl-piperazin-1-yl)-3,4-dihydro-1H-isoquinolin-2-yl]-(4-morpholin-4-yl-phenyl)-methanone] | 129 °C (dec.) |
| CN1CCN(c2cccc3c2CN(C(=O)c2ccc(Cl)cc2)CC3)CC1 (as salt: salt) [Example 10, (4-Chloro-phenyl)-[8-(4-methyl-piperazin-1-yl)-3,4-dihydro-1H-isoquinolin-2-yl]-methanone] | 52 °C |
| CN1CCN(c2cccc3c2CN(C(=O)CC2CC2)CC3)CC1 (as salt: salt) | 66 °C |
| CN1CCN(c2cccc3c2CN(C(=O)Cc2ccc(Cl)cc2Cl)CC3)CC1 (as salt: salt) [Example 6, 2-(2,4-Dichloro-phenyl)-1-[8-(4-methyl-piperazin-1-yl)-3,4-dihydro-1H-isoquinolin-2-yl]-ethanone] | 85 °C |
| COc1ccc(CC(=O)N2CCc3cccc(N4CCN(C)CC4)c3C2)cc1 (as salt: salt) [Example 3, 2-(4-Methoxy-phenyl)-1-[8-(4-methyl-piperazin-1-yl)-3,4-dihydro-1H-isoquinolin-2-yl]-ethanone] | 63 °C |
| CN1CCN(c2cccc3c2CN(C(=O)Cc2ccc(Cl)c(Cl)c2)CC3)CC1 [Example 12, 2-(3,4-Dichloro-phenyl)-1-[8-(4-methyl-piperazin-1-yl)-3,4-dihydro-1H-isoquinolin-2-yl]-ethanone] | 66 °C |

Reference: patent US7101881B2, “Tetrahydroquinolines” (Pfizer Inc, priority 2003, dated 2006)
